Source: patent US12185720B2, “Chitooligosaccharides and methods for use in enhancing plant growth” (NOVOZYMES BIOAG A/S, priority 2011, dated 2025)
“Also recorded” adds a separate entry of the source.

Key:
Assay type in all cases: in vivo
[1] = test system: Tomato seeds of hybrid tomato var. Royal Mounty; experiment: In vitro tomato seedling root growth bioassay (agar medium); conditions: for tomato seedling root length, compared to LCO: 22° C., FIG. 5
Protocol: Tomato seeds of hybrid tomato var. Royal Mounty were surface sterilized with 10% bleach solution for 10 minutes followed by 3 rinses with sterilized distilled water. Seeds were then dried in a laminar air flow hood for 3 hours. Seeds were then placed in petri-dishes on solidified agar medium containing various concentrations of different sources of the LCO illustrated in FIG. 1b (manufactured by Darmstadt, Germany and Grenoble, France) (also referred to in the examples as the “soybean LCO”) and the inventive CO illustrated in FIG. 2a (also referred to in the examples as the “pea CO” or “CO-V”). Seedling roots were measured by a hand ruler and root fresh weights were taken in a micro balance at day 7. Growth study was done in a growth chamber at 22° C.

Cotton plants [2] = experiment: Cotton foliar experiment (greenhouse); conditions: sprayed at V4 stage with 10^−8 M; grown up to 4 weeks; FIG. 9
Description: Cotton seeds were planted and grown to V4 stage (4 leaved stages) and then were sprayed with 10^−8 M of the LCO illustrated in FIG. 2b (also referred to in the examples as the “Pea LCO”) and the pea CO and then left to grow up to 4 weeks with occasional watering with Hoagland solution. Control plants were sprayed with water.

[3] = test system: Soybean seeds (Jung seed, var. 8168NRR); experiment: Treatment of soybean seed with various actives (greenhouse)
Protocol: Soybean seeds (Jung seed, var. 8168NRR) were treated with various active molecules. Seeds were treated with a liquid dose rate of 3 fl oz/100 lbs of seed. Seeds were allowed to dry for a 2 hours and planted in greenhouse in plastic pots containing 1:1 sand:perlite mixture. Seedlings were grown for 4 wks with occasional liquid fertilizer applications and then the plants were harvested. The central leaflet from the 2nd trifoliate (from down to top) was isolated and measured for surface area on a WinRhizo scanner. The rest of the plants were used for plant dry weight (DW).

wheat seeds = experiment: Wheat seed germination in petriplates (Example 6); conditions: 10^−9 M
Protocol: In petriplates on moist filter paper moistened with 10^−9 M treatment solution, canola and wheat seeds were plated for germination. At 18 h after plating, Pea CO induced more canola and wheat seed germination as compared to Pea LCO. Over the period of 21 to 24 hours, seed germination rate for LCO and CO leveled up.

[4] = test system: Alfalfa (Medicago sativa) seeds; experiment: Alfalfa seed germination; conditions: 10^−8 M, FIG. 17
Protocol: Alfalfa (Medicago sativa) seeds were germinated in petriplates on moist filter paper containing Pea LCO and Pea CO treatment solutions (10^−8 M) and petriplates were kept in the dark at room temperature (22° C.).

[5] = test system: Common vetch (Vicia sativa) seeds; experiment: Common vetch seed germination and root length; conditions: FIG. 21
Protocol: Common vetch seeds were plated in petriplates containing 5 ml of treatment solutions on filter paper. Seed germination at 22° C. was counted after 24 h and seedling root length was measured at day 5 with WinRhizo system.

Green Mung seeds = experiment: Seed germination in multiple crops: Green Mung; conditions: 24 h, dark, 22° C., FIG. 23
Protocol: (§1) Similar to the seed germination experiment mentioned above, seeds of different crops were placed on moist filter paper in petriplates containing 5 ml liquid in each. Petriplates with seeds were then kept in the dark at 22° C.

Lab Lab seeds = experiment: Seed germination in multiple crops: Lab Lab; conditions: 30 h, dark, 22° C., FIG. 23
Protocol: as §1

[6] = test system: Green Mung, Lab Lab, Red Lentil and Red Clover seeds; experiment: Seed germination in multiple crops, overall; conditions: four crops; dark, 22° C.; FIG. 23
Protocol: as §1

[7] = test system: tomato Var. Royal Mounty seeds; experiment: Tomato seedling root growth in petriplates (Example 11); conditions: 22° C.; 5 days in dark; FIG. 24
Protocol: In petriplate seed germination process, tomato Var. Royal Mounty seeds ware placed on moist filter paper soaked with 5 ml treatment solution. At 22° C. and after 5 days in dark, tomato seedling roots were measured for growth by WinRhizo system.

[8] = test system: Soybean seeds (Pioneer 9oM80); experiment: Soybean seed treatment, radicle length; conditions: after 48 hours, FIG. 25
Protocol: Soybean seeds (Pioneer 9oM80) were plated in petriplates on moist germination paper soaked with 5 ml of treatment solution containing either water or Soybean LCO, Pea CO and CO plus fatty acids. Seedling radicles were isolated after 48 hours and measured for their length.

Cotton seeds = experiment: Cotton seed treatment (greenhouse); conditions: seed treatment 10^−8 M, 3 fl oz/100 lbs of seed; 4 wks; FIG. 26
Protocol: Cotton seeds were treated with LCO and CO 10^−8 M treatment solutions at a dose rate of 3 fl oz/100 lbs of seed. Seeds were planted the very next day in plastic pots containing 1:1 sand:perlite mixture. Seeds were grown in greenhouse for 4 wks and then they were harvested.

Sorghum seeds = experiment: Sorghum seed germination in petriplates; conditions: CO 10^−8 M, LCO 10^−8 M alone or CO 10^−8 with LCO 10^−9; after 5 days; FIG. 29
Protocol: Sorghum seeds were germinated in petriplates containing liquid treatment solutions. Seedlings were harvested after 5 days and their roots were measured using WinRHIZO scanner.

Cotton plants [9] = experiment: Cotton foliar application with micronutrients (greenhouse); conditions: foliar spray Pea CO 10^−8 M, 4 wks after treatment, compared to control
Protocol: Cotton plants were grown from seeds in greenhouse plastic pots containing sand:perlite in a 1:1 mixture. When seedlings were at the V-stage, they were foliar-sprayed with Pea CO (10^−8 M) and CO plus micronutrients (Ca-pantothenate and boric acid), each in minute amounts. Plants were harvested 4 wks after treatment. Before harvest, leaf greenness was measured by SPAD chlorophyll meter.

corn = experiment: Corn field trials, foliar application, grain yield

CC(=O)NC1C(O)OC(CO)C(OC2OC(CO)C(OC3OC(CO)C(OC4OC(CO)C(OC5OC(CO)C(O)C(O)C5N)C(O)C4NC(C)=O)C(O)C3NC(C)=O)C(O)C2NC(C)=O)C1O (stereo not shown) [Pea CO]
average root growth from all 3 concentrations, compared to LCOs ([1]; FIGS. 7 and 8): significantly better than LCOs
seedling root fresh weight, compared to LCO ([1]; all three levels of concentrations (10^−7, 10^−8 and 10^−9 M), day 7, FIG. 6): outperformed LCO
tomato seedling root length, compared to LCO ([1]; at 10^−7M and 10^−9M, day 7): better
tomato seedling root length, compared to LCO ([1]; at 10^−8M, day 7): equal
root fresh weight, compared to control seedlings ([1]; day 7, control water): significantly better than control seedlings
root length, compared to control seedlings ([1]; day 7, control water): significantly better than control seedlings
more plant fresh weight increase over LCO (Cotton plants [2]): 1.14%
plant fresh weights over control (Cotton plants [2]): significantly increased
plant dry weights (shoot, root or total plant biomass) ([3]; another experiment, vs soybean LCO, isoflavonoids, water, FIG. 13): highest plant dry weights
leaf surface area ([3]; seed treatment 3 fl oz/100 lbs of seed, 4 wks, central leaflet of 2nd trifoliate, vs control (water), FIG. 12): significant increase
leaf surface area, among the three actives (pea LCO, pea CO, China CO) ([3]; seed treatment, 4 wks, FIG. 12): highest leaf surface area
seed germination at 18 h as compared to Pea LCO (wheat seeds; FIG. 16): more
seed germination rate over 21 to 24 hours (wheat seeds; LCO versus CO): leveled up
effect on alfalfa seed germination (conclusion) [4]: could positively impact
germination rate at 20 h among control, LCO and CO ([4]; dark, 22° C.): no difference
more germination over control and LCO at 27 h ([4]; dark, 22° C.): 6%
early seed germination ([5]; 22° C., counted after 24 h): induced early seed germination
more germination over control and LCO ([5]; one day after plating): 25%
seed germination (Green Mung seeds): better germination
seed germination (Lab Lab seeds): better germination
overall seed germination compared to Pea LCO [6]: better than Pea LCO
average seedling root length compared to LCO [7]: better than LCO but it was not significantly better
tomato seedling root length as compared to water control [7]: increased root length
seedling radicle length [8]: less effective
cotton plant dry weight (Cotton seeds): no significant differences; also recorded: relatively higher
total plant dry weight increase over control (Cotton seeds): 3.29%
sorghum seedling root length (Sorghum seeds): increased seedling root length
leaf greenness (SPAD chlorophyll meter) (Cotton plants [9]; FIG. 30): significantly increased
average dry plant weight (Cotton plants [9]; FIG. 31): numerical increase
YIELD, Response Increase (corn): 4.8 % of Control
CO mean yield better than foliar LCO (corn; CO minus LCO): 5.0 bu/A
higher yield increase than foliar LCO (corn; CO minus LCO): 2.6%
trials with a positive response, better than foliar LCO (corn; CO minus LCO): 18.8%
yield enhancement as a foliar treatment (conclusion) (corn; CO versus LCO): at least twice better
YIELD, Mean (N = 16) (corn; four ounces per acre with glyphosate): 201.8 bu/A
YIELD, Response (corn; over Control): 9.2 bu/A
Positive Yield Response (corn; percent of the 16 trials): 93.8%
